US20250345392A1, “ANNEXIN A1 LIQUID PHARMACEUTICAL COMPOSITION” (ResoTher Pharma A/S, priority 2022, published 2025)
Like-named read-outs stand apart in the source and are kept apart here. Ends that are not written are not given here.

Experiment: Clinical test in humans, single 30-min i.v. infusion, plasma PK
Type: in vivo
Conditions: human; for AUC(0-inf) / Cmax / Vd / clearance / AUC(0-t) / half-life / Tmax: in vivo, iv
Experimental: A total of 8 healthy subjects were included in each group. Group 1 received 25 μg/kg of Peptide 1, Group 2 received 50 μg/kg of Peptide 1, Group 3 received 100 μg/kg of Peptide 1, Group 4 received 150 μg/kg of Peptide 1, Group 5 received 200 μg/kg of Peptide 1 and Group 7 received 400 μg/kg of Peptide 1.
The tested liquid pharmaceutical composition has a pH of 8.2-8.4, and comprises the following: • i) 5 mg/ml of Peptide 1, • ii) 4% (w/w) mannitol, • iii) 1% (w/w) sucrose, • iv) 0.01% (w/w) Polysorbate-80, • v) 10 mM glycyl-glycine, and • vi) sterile water for injection.
In these groups, 6 subjects received the active treatment (i.e. a single Peptide 1 30-min intravenous (i.v.) infusion corresponding to the above doses) and 2 received the placebo. In order to prevent any anticipated unblinding, the subjects under active treatment were recorded by the bioanalytical laboratory.
Blood samples were collected for PK purpose for Peptide 1 determinations on Day 1 at the following time points: pre-dose, then, 10 min, 20 min, 30 min (30 min=0.5), 0.75, 1.0, 1.5, 2.0, 2.5, 3.0, 4.0, 6.0, 8.0, 12.0, 16.0 and 24.0 h after the infusion start.
Venous whole blood samples were collected from all subjects.
Plasma samples were analyzed for Peptide 1 using validated Liquid chromatography—Tandem Mass spectrometry (LC-MS/MS) methods by Charles River Laboratories (CRL).
Derivation of PK parameters were carried out by PhinC Development using Phoenix WinNonlin® (Version Phoenix 8.1—Certara—Princeton—USA). A non-compartmental analysis (NCA) approach was chosen.
For the calculation of the PK parameters and characteristics the following rules were applied: • All the plasma concentrations validated by the bioanalytical laboratory and provided to the pharmacokineticist were used for the PK analysis. • The theoretical PK blood sampling time points were used. • At time points in the lag-time between time zero and the first concentration equal or above limit of quantification (LOQ), concentrations below the LOQ (BLQ) were set to zero (0). • Concentrations BLQ between 2 concentrations equal or above LOQ were considered as missing. • Trailing concentrations (at time point between time of last measurable concentrations and time of last blood sample) BLQ were not used in calculations. • For concentration above the upper limit of quantification and reported as above limit of quantification (ALQ) in the final plasma concentration tables, ALQ was considered as missing for the PK analysis. • Not reported (NR) concentration was excluded from the PK analysis. • For the first administration, if pre-dose concentration was less than or equal to 5% of Cmax value in a PK profile, the subject's data was included in all PK measurements and calculations without any adjustments. If the pre-dose value was greater than 5% of Cmax, the subject was dropped from all statistical evaluations.
The following PK parameters of Peptide 1, were derived for each subject receiving the active treatment on Day 1: • Cmax: The observed maximum concentration in plasma measured in a subject after dosing identified by inspection of the plasma drug concentration versus (vs.) time data by WinNonlin®. • tmax: The time at which Cmax was apparent, identified by inspection of the plasma drug concentration vs. time data by Phoenix WinNonlin®. • AUC0-24: The area under the concentration-time curve from time zero (pre-dose) to 24 h was calculated using a linear trapezoidal method. AUC0-24 was only calculated if there were at least 3 concentrations above LOQ. • AUC0-t: The area under the concentration-time curve from time zero (pre-dose) to the time of last quantifiable concentration was calculated using a linear trapezoidal method. The AUC was only calculated if there were at least 3 concentrations above LOQ. • ke: The terminal plasma elimination rate-constant was estimated from log-linear regression analysis of the terminal phase of the plasma concentration-time profile. […]

[1] = 25 ug/kg, single 30-min i.v. infusion 25 μg/kg, GM
[2] = 50 ug/kg, single 30-min i.v. infusion 50 μg/kg, mean
[3] = 100 ug/kg, single 30-min i.v. infusion 100 μg/kg, mean
[4] = 150 ug/kg, single 30-min i.v. infusion 150 μg/kg, GM
[5] = 150 ug/kg, single 30-min i.v. infusion 150 μg/kg, mean
[6] = 200 ug/kg, single 30-min i.v. infusion 200 μg/kg, GM
[7] = 400 ug/kg, single 30-min i.v. infusion 400 μg/kg, mean
[8] = single 30-min i.v. infusion 25 μg/kg, mean
[9] = single 30-min i.v. infusion 50 μg/kg, GM
[10] = single 30-min i.v. infusion 100 μg/kg, GM
[11] = single 30-min i.v. infusion 200 μg/kg, mean
[12] = single 30-min i.v. infusion 400 μg/kg, GM
[13] = single 30-min i.v. infusion 400 μg/kg, mean

With “AMVSEFLKQAWFIENEEQEYVQTLKSSKGGPGSAVSPYPTFNPSSDV-NH2 [Peptide 1]” the “increase of exposure parameters (Cmax and AUCs)” value (“increase of exposure parameters” below) (between 100 μg/kg and 400 μg/kg (dose increased by 4-fold)) was “about 4.3 fold”, the “increase of exposure parameters” value (between 150 μg/kg and 400 μg/kg (dose increased by 2.7-fold)) was “around 3.2 fold” and the “increase of exposure parameters” value (between 200 μg/kg and 400 μg/kg (dose increased by 2 fold)) was “around 2 fold”. The AUC(0-inf) [1] was 211 ng·h/mL, the Cmax [1] was 161 ng/mL and the Vd [1] was 0.13 L/kg. The clearance [1] was 2 mL/min/kg, the AUC(0-t) (25 ug/kg, single 30-min i.v. infusion 25 μg/kg, GM, read-out: AUC0-24) was 211 ng·h/mL and the AUC(0-t) (25 ug/kg, single 30-min i.v. infusion 25 μg/kg, GM, read-out: AUC0-t) was 130 ng·h/mL. For the same substance, the half-life (25 ug/kg, single 30-min i.v. infusion 25 μg/kg, GM, read-out: t1/2 (converted)) was 47.4 min, the Vd (25 ug/kg, single 30-min i.v. infusion 25 μg/kg, mean) was 0.14 L/kg and the AUC(0-t) (25 ug/kg, single 30-min i.v. infusion 25 μg/kg, mean, read-out: AUC0-t) was 132 ng·h/mL. The AUC(0-inf) (50 ug/kg, single 30-min i.v. infusion 50 μg/kg, GM) was 456 ng·h/mL, the AUC(0-t) (50 ug/kg, single 30-min i.v. infusion 50 μg/kg, GM, read-out: AUC0-24) was 457 ng·h/mL and the AUC(0-t) (50 ug/kg, single 30-min i.v. infusion 50 μg/kg, GM, read-out: AUC0-t) was 369 ng·h/mL. For the same substance, the half-life (50 ug/kg, single 30-min i.v. infusion 50 μg/kg, GM, read-out: t1/2 (converted)) was 54 min, the AUC(0-inf) [2] was 464 ng·h/mL and the Cmax [2] was 375 ng/mL. It also gave a Vd [2] of 0.14 L/kg, a clearance [2] of 1.83 mL/min/kg and an AUC(0-t) (50 ug/kg, single 30-min i.v. infusion 50 μg/kg, mean, read-out: AUC0-24) of 464 ng·h/mL. It also gave an AUC(0-t) (50 ug/kg, single 30-min i.v. infusion 50 μg/kg, mean, read-out: AUC0-t) of 378 ng·h/mL, a half-life (50 ug/kg, single 30-min i.v. infusion 50 μg/kg, mean, read-out: t1/2 (converted)) of 55.2 min and a Cmax (100 ug/kg, single 30-min i.v. infusion 100 μg/kg, GM) of 899 ng/mL. It also gave a half-life (100 ug/kg, single 30-min i.v. infusion 100 μg/kg, GM, read-out: t1/2 (converted)) of 67.8 min, an AUC(0-inf) [3] of 1110 ng·h/mL and a Cmax [3] of 916 ng/mL. For the same substance, the Vd [3] was 0.15 L/kg, the clearance [3] was 1.5 mL/min/kg and the AUC(0-t) (100 ug/kg, single 30-min i.v. infusion 100 μg/kg, mean, read-out: AUC0-24) was 1110 ng·h/mL. The AUC(0-t) (100 ug/kg, single 30-min i.v. infusion 100 μg/kg, mean, read-out: AUC0-t) was 1000 ng·h/mL, the half-life (100 ug/kg, single 30-min i.v. infusion 100 μg/kg, mean, read-out: t1/2 (converted)) was 69 min and the AUC(0-inf) [4] was 1490 ng·h/mL. For the same substance, the Cmax [4] was 1250 ng/mL, the Vd [4] was 0.16 L/kg and the AUC(0-t) (150 ug/kg, single 30-min i.v. infusion 150 μg/kg, GM, read-out: AUC0-24) was 1490 ng·h/mL. It also gave an AUC(0-t) (150 ug/kg, single 30-min i.v. infusion 150 μg/kg, GM, read-out: AUC0-t) of 1370 ng·h/mL, a half-life (150 ug/kg, single 30-min i.v. infusion 150 μg/kg, GM, read-out: t1/2 (converted)) of 67.8 min and an AUC(0-inf) [5] of 1520 ng·h/mL. For the same substance, the Cmax [5] was 1280 ng/mL, the Vd [5] was 0.17 L/kg and the clearance [5] was 1.67 mL/min/kg. The AUC(0-t) (150 ug/kg, single 30-min i.v. infusion 150 μg/kg, mean, read-out: AUC0-24) was 1520 ng·h/mL, the AUC(0-t) (150 ug/kg, single 30-min i.v. infusion 150 μg/kg, mean, read-out: AUC0-t) was 1400 ng·h/mL and the half-life (150 ug/kg, single 30-min i.v. infusion 150 μg/kg, mean, read-out: t1/2 (converted)) was 69 min. For the same substance, the AUC(0-inf) [6] was 2280 ng·h/mL, the Cmax [6] was 1700 ng/mL and the Vd [6] was 0.18 L/kg. It also gave a clearance [6] of 1.5 mL/min/kg, an AUC(0-t) (200 ug/kg, single 30-min i.v. infusion 200 μg/kg, GM, read-out: AUC0-24) of 2280 ng·h/mL and an AUC(0-t) (200 ug/kg, single 30-min i.v. infusion 200 μg/kg, GM, read-out: AUC0-t) of 2120 ng·h/mL. It also gave a half-life (200 ug/kg, single 30-min i.v. infusion 200 μg/kg, GM, read-out: t1/2 (converted)) of 86.4 min, an AUC(0-inf) [7] of 4870 ng·h/mL and a Vd [7] of 0.19 L/kg. For the same substance, the clearance [7] was 1.33 mL/min/kg, the AUC(0-t) (400 ug/kg, single 30-min i.v. infusion 400 μg/kg, mean, read-out: AUC0-24) was 4870 ng·h/mL and the AUC(0-t) (400 ug/kg, single 30-min i.v. infusion 400 μg/kg, mean, read-out: AUC0-t) was 4720 ng·h/mL. It also gave a half-life (400 ug/kg, single 30-min i.v. infusion 400 μg/kg, mean, read-out: t1/2 (converted)) of 98.4 min, an AUC(0-inf) [8] of 211 ng·h/mL and a Cmax [8] of 162 ng/mL. For the same substance, the clearance [8] was 2 mL/min/kg, the AUC(0-t) (single 30-min i.v. infusion 25 μg/kg, mean, read-out: AUC0-24) was 211 ng·h/mL and the half-life (single 30-min i.v. infusion 25 μg/kg, mean, read-out: t1/2 (converted)) was 47.4 min. The Cmax [9] was 371 ng/mL, the Vd [9] was 0.14 L/kg and the clearance [9] was 1.83 mL/min/kg. For the same substance, the AUC(0-inf) [10] was 1100 ng·h/mL, the Vd [10] was 0.15 L/kg and the clearance [10] was 1.5 mL/min/kg. The AUC(0-t) (single 30-min i.v. infusion 100 μg/kg, GM, read-out: AUC0-24) was 1100 ng·h/mL, the AUC(0-t) (single 30-min i.v. infusion 100 μg/kg, GM, read-out: AUC0-t) was 991 ng·h/mL and the clearance (single 30-min i.v. infusion 150 μg/kg, GM) was 1.67 mL/min/kg. It also gave an AUC(0-inf) [11] of 2280 ng·h/mL, a Cmax [11] of 1700 ng/mL and a Vd [11] of 0.18 L/kg. It also gave a clearance [11] of 1.5 mL/min/kg, an AUC(0-t) (single 30-min i.v. infusion 200 μg/kg, mean, read-out: AUC0-24) of 2280 ng·h/mL and an AUC(0-t) (single 30-min i.v. infusion 200 μg/kg, mean, read-out: AUC0-t) of 2120 ng·h/mL. For the same substance, the half-life (single 30-min i.v. infusion 200 μg/kg, mean, read-out: t1/2 (converted)) was 87 min, the AUC(0-inf) [12] was 4840 ng·h/mL and the Cmax [12] was 3400 ng/mL. For the same substance, the Vd [12] was 0.19 L/kg, the clearance [12] was 1.33 mL/min/kg and the AUC(0-t) (single 30-min i.v. infusion 400 μg/kg, GM, read-out: AUC0-24) was 4840 ng·h/mL. It also gave an AUC(0-t) (single 30-min i.v. infusion 400 μg/kg, GM, read-out: AUC0-t) of 4690 ng·h/mL, a half-life (single 30-min i.v. infusion 400 μg/kg, GM, read-out: t1/2 (converted)) of 97.2 min and a Cmax [13] of 3420 ng/mL. It also gave a Vd [13] of about 0.19 L/kg, a clearance [13] of about 1.33 mL/min/kg and a half-life (single 30-min i.v. infusion, range at all dose levels, read-out: GM t1/2) of 48 to 96 min. The “time of first measurable concentrations after the start of infusion” value (single 30-min i.v. infusion, all subjects) was 0.16 h, the “time up to which concentrations were measurable in all subjects after the start of infusion” value (single 30-min i.v. infusion, highest dose) was “at least 6 hours” and the “time up to which concentrations were measurable in all subjects after start of the infusion” value (single 30-min i.v. infusion, lowest dose) was “at least 1 hour”. For the same substance, the Tmax [1] was 30 min, the Tmax (50 ug/kg, single 30-min i.v. infusion 50 μg/kg, median) was 30 min and the Tmax (100 ug/kg, single 30-min i.v. infusion 100 μg/kg, median) was 30 min. For the same substance, the Tmax (150 ug/kg, single 30-min i.v. infusion 150 μg/kg, median) was 30 min, the Tmax [6] was 30 min and the Tmax (400 ug/kg, single 30-min i.v. infusion 400 μg/kg, median) was 30 min. It also gave a Tmax (single 30-min i.v. infusion, all subjects (time of the end of infusion)) of 30 min.
